The results in this text go back to US7871999B2, “Substituted thiazoles and their use for producing drugs” (Gruenenthal GmbH, priority 2005, dated 2011).

The target in this experiment is T1, mGluR5 receptor (Sus scrofa, UniProt I3LUI7).
T1 construct: pig brain hemispheres without medulla, cerebellum and pons ... differential centrifugation at 900×g and 40,000×g
Briefly: Inhibition of [^3H]-MPEP binding in the mGluR5 receptor binding assay (pig brain homogenate). The note with it: 5 nM [^3H]-MPEP; for inhibition at 1 µM: 1 μM test compound; for inhibition at 10 µM: 10 μM test compound. As to the method: I. Method for Determining the Inhibition of [^3H]-MPEP Binding in the mGluR5 Receptor Binding Assay […]
The batches are then filtered with the assistance of a Brandel Cell Harvester (Brandel, Robotic 9600 model) on Unifilter plates with glass filter mats (Perkin Elmer, order number 6005177) and then washed 3 times with buffer (as above) using 250 μl per sample. The filter plates are then dried for 60 min at 55° C. Then 30 μl of Ultima Gold™ scintillating material (Packard BioScience, order number 6013159) is added per well and after 3 hours the samples are measured using the β counter (Microbeta, Perkin Elmer). Nonspecific binding is determined by the addition of 10 μM MPEP (Tocris, order number 1212).

Broadly, the IC50 is the concentration at which inhibition is half-maximal. What is called inhibition is the relative decrease from the control value, in per cent. A high value points to a strong effect.

T1 sequence (I3LUI7 1-1212): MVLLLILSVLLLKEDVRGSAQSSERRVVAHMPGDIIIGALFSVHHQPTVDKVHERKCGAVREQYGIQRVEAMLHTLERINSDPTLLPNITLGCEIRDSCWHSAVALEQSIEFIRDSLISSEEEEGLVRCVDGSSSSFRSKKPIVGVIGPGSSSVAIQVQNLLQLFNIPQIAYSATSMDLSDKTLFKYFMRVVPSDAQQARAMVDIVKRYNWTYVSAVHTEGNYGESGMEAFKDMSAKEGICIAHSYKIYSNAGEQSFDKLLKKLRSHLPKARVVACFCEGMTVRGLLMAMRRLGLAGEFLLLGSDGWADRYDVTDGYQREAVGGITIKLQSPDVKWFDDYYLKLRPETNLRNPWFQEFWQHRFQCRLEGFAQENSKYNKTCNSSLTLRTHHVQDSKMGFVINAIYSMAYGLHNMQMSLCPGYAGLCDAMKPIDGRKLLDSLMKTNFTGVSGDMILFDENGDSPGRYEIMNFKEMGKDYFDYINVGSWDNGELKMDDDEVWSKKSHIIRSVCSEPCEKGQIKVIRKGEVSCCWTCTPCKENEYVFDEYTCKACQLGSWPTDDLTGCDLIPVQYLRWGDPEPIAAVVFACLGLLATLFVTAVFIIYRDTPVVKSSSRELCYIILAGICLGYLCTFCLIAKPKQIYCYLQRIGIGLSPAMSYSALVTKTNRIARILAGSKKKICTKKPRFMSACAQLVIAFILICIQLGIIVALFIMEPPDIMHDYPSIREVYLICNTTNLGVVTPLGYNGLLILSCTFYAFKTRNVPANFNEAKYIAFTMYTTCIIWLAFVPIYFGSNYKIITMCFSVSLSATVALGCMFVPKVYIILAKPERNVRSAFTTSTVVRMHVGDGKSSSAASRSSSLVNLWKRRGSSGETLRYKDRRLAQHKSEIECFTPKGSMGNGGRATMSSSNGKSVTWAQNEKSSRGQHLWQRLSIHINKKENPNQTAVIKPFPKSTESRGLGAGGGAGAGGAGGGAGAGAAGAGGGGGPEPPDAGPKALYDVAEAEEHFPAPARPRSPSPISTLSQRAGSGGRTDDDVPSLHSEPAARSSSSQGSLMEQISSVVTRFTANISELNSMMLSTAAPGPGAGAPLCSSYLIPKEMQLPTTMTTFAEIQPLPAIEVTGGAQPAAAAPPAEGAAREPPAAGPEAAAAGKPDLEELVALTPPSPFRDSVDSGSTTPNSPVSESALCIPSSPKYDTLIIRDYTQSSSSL

`Cc1csc(N(C)CCNC(=O)C#Cc2cccc(Cl)c2)n1` [Example 29, N-(2-(methyl-(4-methylthiazol-2-yl)amino)ethyl)-3-(3-chlorophenyl)-propiolamide] yielded an IC50 of 27 nM. This counts as double-digit nanomolar.

Compound `Cc1cnc(N(C)CCNC(=O)C#Cc2cccc(Cl)c2)s1` [Example 30, 3-(3-Chlorophenyl)-N-(2-(methyl(5-methylthiazol-2-yl)amino)ethyl)propiolamide] displayed an IC50 of 77 nM.

For the compound `CN(CCNC(=O)C#Cc1cccc(Cl)c1)c1ncc(Br)s1` [Example 31, N-(2-((5-Bromothiazol-2-yl)(methyl)amino)ethyl)-3-(3-chlorophenyl)propiolamide], the IC50 was determined as 13 nM.

In turn, `COC(=O)c1cnc(N(C)CCNC(=O)C#Cc2cccc(Cl)c2)s1` [Example 34, methyl 2-((2-(3-(3-chlorophenyl)-propiolamido)ethyl)(methyl)amino)thiazole-5-carboxylate] returned an IC50 of 20 nM.

Regarding `CN(C(=O)C#Cc1cccc(Cl)c1)C1CCCN(c2nccs2)C1` (stereo not shown) [Example 36, 3-(3-Chlorophenyl)-N-methyl-N-(1-(thiazol-2-yl)piperidin-3-yl)propiolamide], the IC50 is 22 nM.

Compound `CN(CCNC(=O)C#Cc1cccc(Cl)c1)c1nc(Cl)cs1` [Example 37, 3-(3-chlorophenyl)-N-(2-((4-chlorothiazol-2-yl)(methyl)amino)ethyl)propiolamide] came in with a 50% inhibitory concentration (IC50) of 9.5 nM.

As to `CN(CCNC(=O)C#Cc1cccc(Cl)c1)c1ncc(Cl)s1` [Example 38, 3-(3-chlorophenyl)-N-(2-((5-chlorothiazol-2-yl)(methyl)amino)ethyl)-propiolamide], the IC50 turned out to be 160 nM.

`O=C(C#Cc1cccc(Cl)c1)NC1CN(c2nccs2)C1` [Example 39, 3-(3-chlorophenyl)-N-(1-(thiazol-2-yl)azetidin-3-yl)-propiolamide] gave an IC50 of 390 nM. This IC50 is about 2.4-fold higher than that of the compound before.

The compound `CN(C(=O)C#Cc1cccc(Cl)c1)C1CN(c2nccs2)C1` [Example 40, 3-(3-chlorophenyl)-N-methyl-N-(1-(thiazol-2-yl)azetidin-3-yl)-propiolamide] showed an IC50 of 17 nM. Against the preceding compound, the IC50 is about 23-fold lower.

`CCN(CCNC(=O)C#Cc1cccc(Cl)c1)c1nccs1` [Example 41, 3-(3-Chlorophenyl)-N-(2-(ethyl(thiazol-2-yl)amino)ethyl)propiolamide] came in with a concentration for half-maximal inhibition (IC50) of 4.1 nM.

Compound `CN(CCNC(=O)C#Cc1cccc(Cl)c1)c1ncc(C#N)s1` [Example 42, 3-(3-chlorophenyl)-N-(2-((5-cyanothiazol-2-yl)(methyl)amino)ethyl)propiolamide] showed an IC50 of 220 nM.

Take `CN(c1ncc(F)s1)C1CN(C(=O)C#Cc2cccc(Cl)c2)C1` [Example 43, 1-(3-(3-Chlorophenyl)propioloyl)-3-(methyl(5-fluorothiazol-2-yl)amino)azetidine]: the IC50 is 74 nM.

`CN(c1ncc(F)s1)C1CCN(C(=O)C#Cc2cccc(Cl)c2)C1` (stereo not shown) [Example 44, 1-(3-(3-Chlorophenyl)propioloyl)-3-(methyl(5-fluorothiazol-2-yl)amino)pyrrolidine] returned an IC50 of 71 nM.

Compound `Cc1csc(N2CCC(NC(=O)C#Cc3ccccc3)C2)n1` (stereo not shown) [Example 45, N-(1-(4-methylthiazol-2-yl)pyrrolidin-3-yl)-3-phenylpropiolamide] came in with an inhibition at 1 µM of 59%.

With `COc1cccc(C#CC(=O)NC2CCN(c3nc(C)cs3)C2)c1` (stereo not shown) [Example 46, 3-(3-methoxyphenyl)-N-(1-(4-methylthiazol-2-yl)pyrrolidin-3-yl)propiolamide], the inhibition at 1 µM turned out to be 48%.

For `Cc1nc(N2CCC(NC(=O)C#Cc3ccccc3)C2)sc1C` (stereo not shown) [Example 51, N-(1-(4,5-dimethylthiazol-2-yl)pyrrolidin-3-yl)-3-phenylpropiolamide], the inhibition at 1 µM worked out at 48%.

In turn, `COc1ccc(C#CC(=O)NC2CCN(c3nc(C(C)(C)C)cs3)C2)cc1` (stereo not shown) [Example 55, N-(1-(4-tert.-butylthiazol-2-yl)pyrrolidin-3-yl)-3-(4-methoxyphenyl)propiolamide] displayed an inhibition at 1 µM of 26%.

Compound `Cc1ccc(C#CC(=O)NC2CCN(c3nc(C(C)(C)C)cs3)C2)cc1` (stereo not shown) [Example 56, N-(1-(4-tert.-butylthiazol-2-yl)pyrrolidin-3-yl)-3-p-tolylpropiolamide] returned an inhibition at 1 µM of 37%.

`CC(C)(C)c1csc(N2CCC(NC(=O)C#Cc3ccc(F)cc3)C2)n1` (stereo not shown) [Example 57, N-(1-(4-tert.-butylthiazol-2-yl)pyrrolidin-3-yl)-3-(4-fluorophenyl)propiolamide] returned an inhibition at 1 µM of 26%.

Compound `CC(C)(C)c1csc(N2CCC(NC(=O)C#Cc3cccc(F)c3)C2)n1` (stereo not shown) [Example 59, N-(1-(4-tert.-butylthiazol-2-yl)pyrrolidin-3-yl)-3-(3-fluorophenyl)propiolamide] came in with an inhibition at 1 µM of 34%.

`CC(C)(C)c1csc(N2CCC(NC(=O)C#Cc3ccccc3)C2)n1` (stereo not shown) [Example 60, N-(1-(4-tert.-butylthiazol-2-yl)pyrrolidin-3-yl)-3-phenylpropiolamide] gave an inhibition at 1 µM of 30%.

`CC(C)(C)c1csc(N2CCC(NC(=O)C#Cc3ccccc3F)C2)n1` (stereo not shown) [Example 61, N-(1-(4-tert.-butylthiazol-2-yl)pyrrolidin-3-yl)-3-(2-fluorophenyl)propiolamide] came in with an inhibition at 1 µM of 28%.

Consider `Cc1csc(N2CCC(NC(=O)C#Cc3cccc(F)c3)C2)n1` (stereo not shown) [Example 67, 3-(3-fluorophenyl)-N-(1-(4-methylthiazol-2-yl)pyrrolidin-3-yl)propiolamide], for which 1 µM produced 76% inhibition.

Compound `Cc1csc(N2CCC(NC(=O)C#Cc3ccccc3F)C2)n1` (stereo not shown) [Example 70, 3-(2-fluorophenyl)-N-(1-(4-methylthiazol-2-yl)pyrrolidin-3-yl)propiolamide] gave an inhibition at 1 µM of 50%.

Regarding `Cc1csc(N2CCC(NC(=O)C#Cc3cccc(C(F)(F)F)c3)C2)n1` (stereo not shown) [Example 71, N-(1-(4-methylthiazol-2-yl)pyrrolidin-3-yl)-3-(3-(trifluoromethyl)phenyl)-propiolamide], 1 µM produced 59% inhibition.

`Cc1cccc(C#CC(=O)NC2CCN(c3nc(C)cs3)C2)c1` (stereo not shown) [Example 72, N-(1-(4-methylthiazol-2-yl)pyrrolidin-3-yl)-3-m-tolylpropiolamide] displayed an inhibition at 1 µM of 87%.

Regarding `Cc1ccc(C#CC(=O)NC2CCN(c3ncc(C)s3)C2)cc1` (stereo not shown) [Example 73, N-(1-(5-methylthiazol-2-yl)pyrrolidin-3-yl)-3-p-tolylpropiolamide], testing at 1 µM gave an inhibition of 18%.

`Cc1cccc(C#CC(=O)NC2CCN(c3ncc(C)s3)C2)c1` (stereo not shown) [Example 74, N-(1-(5-methylthiazol-2-yl)pyrrolidin-3-yl)-3-m-tolylpropiolamide]: the inhibition at 1 µM was found to be 89%.

Compound `Cc1cnc(N2CCC(NC(=O)C#Cc3ccccc3)C2)s1` (stereo not shown) [Example 76, N-(1-(5-methylthiazol-2-yl)pyrrolidin-3-yl)-3-phenylpropiolamide] displayed an inhibition at 1 µM of 56%.

The compound `Cc1cnc(N2CCC(NC(=O)C#Cc3ccccc3F)C2)s1` (stereo not shown) [Example 77, 3-(2-fluorophenyl)-N-(1-(5-methylthiazol-2-yl)pyrrolidin-3-yl)propiolamide] registered an inhibition at 1 µM of 21%.

As for `COc1cccc(C#CC(=O)NC2CCN(c3ncc(C)s3)C2)c1` (stereo not shown) [Example 78, 3-(3-methoxyphenyl)-N-(1-(5-methylthiazol-2-yl)pyrrolidin-3-yl)propiolamide], at 1 µM the inhibition was 26%.

`Cc1cnc(N2CCC(NC(=O)C#Cc3cccc(F)c3)C2)s1` (stereo not shown) [Example 81, 3-(3-fluorophenyl)-N-(1-(5-methylthiazol-2-yl)pyrrolidin-3-yl)propiolamide] came in with an inhibition at 1 µM of 57%.

Regarding `Cc1cccc(C#CC(=O)NC2CCN(c3nc(C)c(C)s3)C2)c1` (stereo not shown) [Example 82, N-(1-(4,5-dimethylthiazol-2-yl)pyrrolidin-3-yl)-3-m-tolylpropiolamide], the inhibition at 1 µM turned out to be 81%.

In the case of `Cc1nc(N2CCC(NC(=O)C#Cc3cccc(C(F)(F)F)c3)C2)sc1C` (stereo not shown) [Example 85, N-(1-(4,5-dimethylthiazol-2-yl)pyrrolidin-3-yl)-3-(3-(trifluoromethyl)phenyl)-propiolamide], the inhibition at 1 µM was determined as 41%.

Consider `Cc1cnc(N2CCC(NC(=O)C#Cc3cccc(C(F)(F)F)c3)C2)s1` (stereo not shown) [Example 87, N-(1-(5-methylthiazol-2-yl)pyrrolidin-3-yl)-3-(3-(trifluoromethyl)phenyl)-propiolamide], for which the inhibition at 1 µM amounted to 23%.

Compound `COc1cccc(C#CC(=O)NC2CCN(c3nc(C)c(C)s3)C2)c1` (stereo not shown) [Example 90, N-(1-(4,5-dimethylthiazol-2-yl)pyrrolidin-3-yl)-3-(3-methoxyphenyl)propiolamide] displayed an inhibition at 1 µM of 34%.

Take `Cc1cccc(C#CC(=O)NC2CCN(c3nc(C(C)(C)C)cs3)C2)c1` (stereo not shown) [Example 99, N-(1-(4-tert.-butylthiazol-2-yl)pyrrolidin-3-yl)-3-m-tolylpropiolamide]: the inhibition at 1 µM is 46%.

`CC(C)(C)c1csc(N2CCC(NC(=O)C#Cc3cccc(Cl)c3)C2)n1` (stereo not shown) [Example 100, N-(1-(4-tert.-butylthiazol-2-yl)pyrrolidin-3-yl)-3-(3-chlorophenyl)propiolamide] gave an inhibition at 1 µM of 38%.

Consider `Cc1csc(N2CCC(NC(=O)C#Cc3cccc(Cl)c3)C2)n1` (stereo not shown) [Example 105, 3-(3-chlorophenyl)-N-(1-(4-methylthiazol-2-yl)pyrrolidin-3-yl)propiolamide], for which 10 µM produced 83% inhibition.

With `Cc1csc(N2CCC(NC(=O)C#Cc3cccs3)C2)n1` (stereo not shown) [Example 106, N-(1-(4-methylthiazol-2-yl)pyrrolidin-3-yl)-3-(thiophen-2-yl)propiolamide], the inhibition at 10 µM was 38%.
